Where “and” joins values, the source holds several entries; their conditions need not be identical. Equal entries are not always repeated. No end group written: not given here.
Assays:
[1] = tested on: substance P-induced contractions of guinea pig ileum; assay: Antagonism of substance P: inhibition of substance P-induced contractions of isolated guinea pig ileum; conditions: for Antagonist Activity (% Inhibition): 100 μM, substance P-induced contractions of isolated guinea pig ileum, 37° C., with atropine, diphenhydramine, indomethacin; for Modulation of substance P (in words): conclusion from Table 1
Description: The ability of the calcium sulfate compounds of this invention to modulate substance P may be assayed by known techniques, such as those disclosed by Mizrahi et al. (Eur. J. Pharmacol. 91:139-140, 1983) and Holzer et al. (P. Eur. J. Pharmacol. 91:83-88, 1983). For example, PanLabs Test Numbers 3-0580 screen the ability of compounds to function as substance P antagonists by determining the ability of the compound to inhibit substance P-induced contractions of guinea pig ileum (see Example 6 herein below).
This example illustrates the ability of representative calcium sulfate compounds of this invention to modulate substance P by functioning as substance P antagonists. Activity was measured by the procedures disclosed by Mizrahi et al. (Eur. J. Pharmacol. 91:139-140, 1983) and Holzer et al., (Eur. J. Pharmacol. 91:83-88, 1983). Specifically, isolated guinea pig ileum, bathed in physiological salt solution containing atropine (4.5 μM), diphenhydramaine (3.4 μM), and indomethacin (2.8 μM) at 37° C. was used. The ability of a test compounds to inhibit substance P-induced contractions of the illeum indicates antagonist activity.

[2] = Single oral dose toxicity in Sprague Dawley rats, 14 day observation; assay type: in vivo, rat (Sprague Dawley); conditions: single oral dose 5 g/kg
Description: This example illustrates the non-toxic nature of a representative calcium sulfate compound of this invention (i.e., syngenite).
To determine the potential toxicity and/or toxic effects of syngenite when administered as a single oral dose in rats, 5 male and 5 female Sprague Dawley rats (200-300 grams) were administered syngenite at a dose level of 5 g/kg body weight by syringe and suitable intubation tubes.
The body weight of each rat was recorded (in grams) just prior to administration of syngenite (Day 0), and weekly thereafter for two weeks (i.e., Day 7 and Day 14).

neurogenic inflammation = conditions: pretreatment of the oral mucosa; cited from earlier work
cluster headaches = conditions: intranasal, humans; cited from earlier work
stomach injury = conditions: cited from earlier work
febrile response = conditions: microinjected into the preoptic area of conscious guinea pigs; cited from earlier work
nasal protein output = conditions: exogenously applied, allergic rhinitis patients; cited from earlier work

O.O=S(=O)([O-])[O-].O=S(=O)([O-])[O-].O=S(=O)([O-])[O-].O=S(=O)([O-])[O-].O=S(=O)([O-])[O-].O=S(=O)([O-])[O-].[Ca+2].[Ca+2].[Ca+2].[Ca+2].[Ca+2].[K+].[K+] [Gorgeyite]
Antagonist Activity (% Inhibition) [1]: 16% | Modulation of substance P (in words) [1]: effective modulating agents of substance P

O.O.O=S(=O)([O-])[O-].[Ca+2] [Gypsum, calcium sulfate dihydrate]
Antagonist Activity (% Inhibition) [1]: 39% | Modulation of substance P (in words) [1]: effective modulating agents of substance P

O.O=S(=O)(O)O.O=S(=O)(O)O.[Ca].[K].[K] [Syngenite]
Antagonist Activity (% Inhibition) [1]: 40% | Modulation of substance P (in words) [1]: effective modulating agents of substance P | Body weight, Day 7 ([2]; female rats): 255 grams and 266 grams and 251 grams and 269 grams and 279 grams | Body weight, Day 14 ([2]; female rats): 256 grams and 273 grams and 287 grams and 299 grams | Body weight, Day 7 ([2]; male rats): 350 grams and 333 grams and 329 grams and 336 grams and 337 grams | Body weight, Day 14 ([2]; male rats): 395 grams and 374 grams and 375 grams and 368 grams and 386 grams | Gross abnormalities at necropsy [2]: No gross abnormalities in any of the animals were observed | Survival / mortality ([2]; 5 male and 5 female rats, 14 days): All ten test animals survived the 14 day observation period | Appearance of animals ([2]; 14 days): all animals appeared normal | Clinical observations ([2]; 14 days): No clinical observations were noted | Toxicity (overall) ([2]; rats): non-toxic

COc1cc(CNC(=O)CCCC/C=C/C(C)C)ccc1O [capsaicin]
Neurogenic inflammation upon local administration of substance P (neurogenic inflammation): prevents neurogenic inflammation | Severity of cluster headaches (cluster headaches): decrease the severity of cluster headaches | Area of stomach injury (stomach injury; intragastric, prior to challenge with 30% ETOH): reduced the area of stomach injury

substance P: undecapeptide, member of the tachykinin family of mammalian regulatory peptides (RPKPQQFFGLM; ends and bridges not checked; UniProt P20366 58-68, looked up)
Temperature (febrile response): caused an increase in temperature | Areas of injury (stomach) (stomach injury; given IV): increased the areas of injury | Nasal protein output (nasal protein output): causes an increase in nasal protein output
